Data published in paper PMC11280325, “Design, Synthesis, and Characterization of Novel Thiazolidine-2,4-Dione-Acridine Hybrids as Antitumor Agents” (Molecules, 2024).

Experiments:
Bj-5ta = assay: MTT assay, BJ-5ta non-cancerous fibroblasts; type: cell-based, human; conditions: Homo sapiens, Fibroblast, 48 h, non-cancerous dermal fibroblasts, 48 h incubation
In short: (§1)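 IC50 by nonlinear regression from MTT absorbance (540 nm, SDS-dissolved formazan), at least three repeats. Non-cancerous human lines, MCF-10A and BJ-5ta fibroblasts, were treated 48 h with 5, 10, 20 and 50 µmol/L compound, added 24 h after seeding.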

HCT116 = assay: MTT assay, HCT116; type: cell-based, human; conditions: colorectal adenocarcinoma, 48 h incubation
In short: (§2)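 MTT viability after 48 h exposure to compounds at final 5–50 µmol/L; formazan in 10% SDS read at 540 nm, IC50 fitted by nonlinear regression from at least three independent experiments.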

Hep G2 = assay: MTT assay, Hep G2; type: cell-based, human; conditions: Homo sapiens, HepG2, 48 h, hepatocellular carcinoma, 48 h incubation
In short: as §2

A2780 = assay: MTT assay, A2780; type: cell-based, human; conditions: ovarian adenocarcinoma, 48 h incubation
In short: as §2

PATU = assay: MTT assay, PATU 8902; type: cell-based, human; conditions: Homo sapiens, PaTu 8902, 48 h, pancreas adenocarcinoma, 48 h incubation
In short: as §2

A2058 = assay: MTT assay, A2058; type: cell-based; conditions: Homo sapiens, A2058, 48 h, human melanoma, 48 h incubation
In short: as §2

A549 = assay: MTT assay, A549; type: cell-based, human; conditions: Homo sapiens, A549, 48 h, lung adenocarcinoma, 48 h incubation
In short: as §2

HeLa = assay: MTT assay, HeLa; type: cell-based, human; conditions: cervical adenocarcinoma, 48 h incubation
In short: as §2

MCF-10A = assay: MTT assay, MCF-10A non-cancerous cells; type: cell-based, human; conditions: non-cancerous epithelial breast cells, 48 h incubation
In short: as §1

IC50 (HCT116)	IC50 (A2780; Homo sapiens, A2780, 48 h)	melting point	IC50 (A549)	IC50 (HeLa; Homo sapiens, HeLa, 48 h)	IC50 (HCT116; Homo sapiens, HCT-116, 48 h)	IC50 (A2780)	IC50 (HeLa)	Compound	IC50 (Bj-5ta)	IC50 (Hep G2)	IC50 (PATU)	IC50 (A2058)	IC50 (MCF-10A; Homo sapiens, MCF-10A, 48 h)	IC50 (MCF-10A)
> 50 µM	–	260 to 262 °C	> 50 µM	18.7 ± 0.45 µM	–	> 50 µM	–	COc1cc(/C=C2\SC(=O)N(Cc3c4ccccc4nc4ccccc34)C2=O)ccc1OCC(=O)Nc1ccccc1 [Compound 12a, 2-(4-{[(5Z)-3-[(Acridin-9-yl)methyl]-2,4-dioxo-1,3-thiazolidin-5-ylidene]methyl}-2-methoxyphenoxy)-N-phenylacetamide]	> 50 µM	> 50 µM	> 50 µM	> 50 µM	–	> 50 µM
10.2 ± 2.1 µM	–	264 to 265 °C	34.5 ± 5.4 µM	7.3 ± 3.4 µM	–	> 50 µM	–	COc1cc(NC(=O)COc2ccc(/C=C3\SC(=O)N(Cc4c5ccccc5nc5ccccc45)C3=O)cc2OC)cc(OC)c1 [Compound 12b, 2-(4-{[(5Z)-3-[(Acridin-9-yl)methyl]-2,4-dioxo-1,3-thiazolidin-5-ylidene]methyl}-2-methoxyphenoxy)-N-(3,5-dimethoxyphenyl)acetamide]	> 50 µM	> 50 µM	> 50 µM	> 50 µM	15.6 ± 2.6 µM	–
–	> 50 µM	288 to 290 °C	31.2 ± 1.1 µM	–	14.6 ± 1.7 µM	–	9.4 ± 0.3 µM	COc1cc(/C=C2\SC(=O)N(Cc3c4ccccc4nc4ccccc34)C2=O)ccc1OCC(=O)Nc1ccc([N+](=O)[O-])cc1 [Compound 12d, 2-(4-{[(5Z)-3-[(Acridin-9-yl)methyl]-2,4-dioxo-1,3-thiazolidin-5-ylidene]methyl}-2-methoxyphenoxy)-N-(4-nitrophenyl)acetamide]	> 50 µM	> 50 µM	> 50 µM	> 50 µM	> 50 µM	–
14.3 ± 1.8 µM	> 50 µM	255 to 256 °C	31.1 ± 4.2 µM	–	–	–	28.2 ± 3.7 µM	COc1cc(/C=C2\SC(=O)N(Cc3c4ccccc4nc4ccccc34)C2=O)ccc1OCC(=O)Nc1ccccc1C(F)(F)F [Compound 12e, 2-(4-{[(5Z)-3-[(Acridin-9-yl)methyl]-2,4-dioxo-1,3-thiazolidin-5-ylidene]methyl}-2-methoxyphenoxy)-N-[2-(trifluoromethyl)phenyl]acetamide]	> 50 µM	> 50 µM	> 50 µM	> 50 µM	> 50 µM	–
> 50 µM	> 50 µM	269 to 270 °C	> 50 µM	11.5 ± 3.3 µM	–	–	–	COc1cc(/C=C2\SC(=O)N(Cc3c4ccccc4nc4ccccc34)C2=O)ccc1OCC(=O)Nc1cccc(C(F)(F)F)c1 [Compound 12f, 2-(4-{[(5Z)-3-[(Acridin-9-yl)methyl]-2,4-dioxo-1,3-thiazolidin-5-ylidene]methyl}-2-methoxyphenoxy)-N-[3-(trifluoromethyl)phenyl]acetamide]	> 50 µM	> 50 µM	> 50 µM	> 50 µM	> 50 µM	–
6.7 ± 2 µM	> 50 µM	287 to 288 °C	> 50 µM	20.7 ± 5.3 µM	–	–	–	COc1cc(/C=C2\SC(=O)N(Cc3c4ccccc4nc4ccccc34)C2=O)ccc1OCC(=O)Nc1cc(C(F)(F)F)cc(C(F)(F)F)c1 [Compound 12g, 2-(4-{[(5Z)-3-[(Acridin-9-yl)methyl]-2,4-dioxo-1,3-thiazolidin-5-ylidene]methyl}-2-methoxyphenoxy)-N-[3,5-bis(trifluoromethyl)phenyl]acetamide]	> 50 µM	> 50 µM	> 50 µM	> 50 µM	> 50 µM	–

Further lines, the compound ahead of its results:

Compound	IC50 (HCT116)	IC50 (A2780; Homo sapiens, A2780, 48 h)	melting point	IC50 (A549)	IC50 (HeLa; Homo sapiens, HeLa, 48 h)	IC50 (HCT116; Homo sapiens, HCT-116, 48 h)	IC50 (A2780)	IC50 (HeLa)	IC50 (Bj-5ta)	IC50 (Hep G2)	IC50 (PATU)	IC50 (A2058)	IC50 (MCF-10A; Homo sapiens, MCF-10A, 48 h)	IC50 (MCF-10A)
O=C(COc1ccc(/C=C2\SC(=O)N(Cc3cccc4cc5ccccc5nc34)C2=O)cc1)Nc1ccccc1C(F)(F)F [Compound 8e, 2-(4-{[(5Z)-3-[(Acridin-4-yl)methyl]-2,4-dioxo-1,3-thiazolidin-5-ylidene]methyl}phenoxy)-N-[2-(trifluoromethyl)phenyl]acetamide]	24.3 ± 3.8 µM	> 50 µM	205 to 206 °C (dec.)	> 50 µM	43.3 ± 5.2 µM	–	–	–	> 50 µM	> 50 µM	> 50 µM	> 50 µM	> 50 µM	–
O=C(COc1ccc(/C=C2\SC(=O)N(Cc3cccc4cc5ccccc5nc34)C2=O)cc1)Nc1cccc(C(F)(F)F)c1 [Compound 8f, 2-(4-{[(5Z)-3-[(Acridin-4-yl)methyl]-2,4-dioxo-1,3-thiazolidin-5-ylidene]methyl}phenoxy)-N-[3-(trifluoromethyl)phenyl]acetamide]	–	> 50 µM	219 to 220 °C (dec.)	> 50 µM	27.7 ± 4.6 µM	25.1 ± 7.8 µM	–	–	> 50 µM	> 50 µM	> 50 µM	> 50 µM	> 50 µM	–
COc1cc(/C=C2\SC(=O)N(Cc3c4ccccc4nc4ccccc34)C2=O)ccc1OCC(=O)Nc1cc(OC)c(OC)c(OC)c1 [Compound 12c, 2-(4-{[(5Z)-3-[(Acridin-9-yl)methyl]-2,4-dioxo-1,3-thiazolidin-5-ylidene]methyl}-2-methoxyphenoxy)-N-(3,4,5-trimethoxyphenyl)acetamide]	15.1 ± 2 µM	> 50 µM	268 to 269 °C	> 50 µM	19.9 ± 2.05 µM	–	–	–	> 50 µM	> 50 µM	> 50 µM	> 50 µM	> 50 µM	–
COc1cc(/C=C2\SC(=O)N(Cc3cccc4cc5ccccc5nc34)C2=O)ccc1OCC(=O)Nc1ccccc1 [Compound 13a, 2-(4-{[(5Z)-3-[(Acridin-4-yl)methyl]-2,4-dioxo-1,3-thiazolidin-5-ylidene]methyl}-2-methoxyphenoxy)-N-phenylacetamide]	–	> 50 µM	213 to 214 °C	> 50 µM	41.9 ± 5.7 µM	> 50 µM	–	–	> 50 µM	> 50 µM	> 50 µM	49.1 ± 0.85 µM	> 50 µM	–
COc1cc(NC(=O)COc2ccc(/C=C3\SC(=O)N(Cc4cccc5cc6ccccc6nc45)C3=O)cc2OC)cc(OC)c1 [Compound 13b, 2-(4-{[(5Z)-3-[(Acridin-4-yl)methyl]-2,4-dioxo-1,3-thiazolidin-5-ylidene]methyl}-2-methoxyphenoxy)-N-(3,5-dimethoxyphenyl)acetamide]	–	> 50 µM	222 to 224 °C	38.9 ± 2.1 µM	25.7 ± 3.45 µM	44.7 ± 4.1 µM	–	–	41.7 ± 0.8 µM	> 50 µM	> 50 µM	34.4 ± 2.45 µM	43.6 ± 3.3 µM	–
